Test results as given in patent US9598401B2, “Substituted heteroaryl compounds and methods of use thereof” (Sunshine Lake Pharma Co., Ltd., priority 2013, dated 2017).
Where two headings read alike, the source gives them in different places.

Assays:
serotonin transporter = serotonin transporter (Rattus norvegicus (Rat), UniProt P31652); assay: Inhibitory effect on [3H]5-HT uptake in rat synaptosome; format: biochemical; details: rat brain synaptosomes, 37° C., 15 minutes, 0.1 μCi [3H]5-HT
Procedure: The synaptosomes (150 μg) prepared from the rat brain were incubated at 37° C. for 15 minutes with 0.1 μCi [^3H]5-HT in the absence or presence of the test compound or the reference compound in a buffer solution containing 106.2 mM NaCl, 4.5 mM KCl, 2.25 mM MgSO4, 1.08 mM NaH2PO4, 22.5 mM NaHCO3, 9.9 mM glucose, 9 μM EGTA and 45 μM ascorbic acid (pH 7.4).
Inhibition of serotonin transporter in rat synaptosome was measured by the concentrations of [^3H]5-HT.

dopamine D2S receptor = dopamine D2S receptor (Homo sapiens (Human), UniProt P14416); assay: Affinity for human dopamine D2S receptor ([3H]methyl-spiperone binding); details: 0.3 nM [3H]methyl-spiperone, cell membrane homogenates, 22° C., 60 minutes
Sequence of dopamine D2S receptor (P14416 other isoform, or with tags, fused parts or gaps): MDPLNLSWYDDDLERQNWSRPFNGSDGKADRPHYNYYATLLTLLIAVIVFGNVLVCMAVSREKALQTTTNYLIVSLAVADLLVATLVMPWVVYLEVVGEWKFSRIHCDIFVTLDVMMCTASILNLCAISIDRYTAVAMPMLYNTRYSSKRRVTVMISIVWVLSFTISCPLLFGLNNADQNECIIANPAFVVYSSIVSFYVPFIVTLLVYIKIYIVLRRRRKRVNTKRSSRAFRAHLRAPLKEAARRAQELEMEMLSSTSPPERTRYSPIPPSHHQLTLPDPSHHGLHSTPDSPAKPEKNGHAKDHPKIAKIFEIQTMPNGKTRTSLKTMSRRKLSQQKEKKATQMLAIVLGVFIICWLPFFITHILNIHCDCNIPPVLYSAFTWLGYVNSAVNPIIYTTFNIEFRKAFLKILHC
Procedure: Cell membrane homogenates (24 μg protein) were incubated at 22° C. for 60 minutes with 0.3 nM [3H]methyl-spiperone in the absence or presence of the test compound in a buffer solution containing 50 mM Tris-HCl (pH 7.4), 120 mM NaCl, 5 mM KCl, 5 mM MgCl2 and 1 mM EDTA.
The non-specific binding value was determined by incubating the same mixture in the presence of 10 μM (+)butaclamol.
Following the incubation, the samples were filtered rapidly under vacuum through glass fiber filter (GF/B, Packard) presoaked with 0.3% PEI and rinsed several times with ice-cold 50 mM Tris-HCl using a 96-sample cell harvester (Unifilter, Packard). The filters were dried and the retained radioactivity was measured in a scintillation counter (Topcount, Packard) using a scintillation cocktail (Microscint 0, Packard).
The experimental results were expressed as a percent inhibition of the control radioligand specific binding, and Ki was the inhibition constant. The standard reference compound was (+)butaclamol, which was tested in each experiment at several concentrations to obtain a competition curve from which its IC50 was calculated, and then Ki value was calculated by ChengPrusoff equation.

5-HT1A receptor = 5-HT1A receptor (Homo sapiens (Human), UniProt P08908); assay: Affinity for human 5-HT1A receptor ([3H]8-OH-DPAT binding, HEK-293 cell homogenates);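 note: Filter-retained radioactivity counted by scintillation, non-specific binding defined with 10 µM 8-OH-DPAT, Ki derived from percent inhibition of specific radioligand binding versus control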
Sequence of 5-HT1A receptor (P08908 whole entry): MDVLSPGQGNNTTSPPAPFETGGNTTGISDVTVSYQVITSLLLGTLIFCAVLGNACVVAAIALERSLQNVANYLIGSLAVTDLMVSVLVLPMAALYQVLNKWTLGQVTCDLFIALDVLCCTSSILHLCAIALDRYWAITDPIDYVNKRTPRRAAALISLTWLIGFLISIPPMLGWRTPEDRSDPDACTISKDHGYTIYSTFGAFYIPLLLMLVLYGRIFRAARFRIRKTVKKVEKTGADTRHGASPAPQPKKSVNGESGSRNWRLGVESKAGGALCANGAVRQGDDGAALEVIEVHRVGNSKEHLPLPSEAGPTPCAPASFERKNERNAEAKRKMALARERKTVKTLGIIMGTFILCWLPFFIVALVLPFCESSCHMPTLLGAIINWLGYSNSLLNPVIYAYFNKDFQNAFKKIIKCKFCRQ
Procedure: The non-specific binding value was determined by incubating the same mixture in the presence of 10 μM 8-OH-DPAT, which was used as the standard reference compound and tested in each experiment at several concentrations to obtain a competition curve.
Following the incubation, the samples were filtered rapidly under vacuum through glass fiber filter (GF/B, Packard) presoaked with 0.3% PEI and rinsed several times with ice-cold 50 mM Tris-HCl using a 96-sample cell harvester (Unifilter, Packard). The filters were dried and the retained radioactivity was measured in a scintillation counter (Topcount, Packard) using a scintillation cocktail (Microscint 0, Packard). The experimental results were expressed as a percent inhibition of the control radioligand specific binding, and Ki was the inhibition constant.

[1] = read-out: Ki, binding affinity for 5-HT1A receptor, 0.3 nM [3H]8-OH-DPAT, human HEK-293 cell homogenates, 22° C., 60 minutes

Sequence of serotonin transporter (P31652 whole entry): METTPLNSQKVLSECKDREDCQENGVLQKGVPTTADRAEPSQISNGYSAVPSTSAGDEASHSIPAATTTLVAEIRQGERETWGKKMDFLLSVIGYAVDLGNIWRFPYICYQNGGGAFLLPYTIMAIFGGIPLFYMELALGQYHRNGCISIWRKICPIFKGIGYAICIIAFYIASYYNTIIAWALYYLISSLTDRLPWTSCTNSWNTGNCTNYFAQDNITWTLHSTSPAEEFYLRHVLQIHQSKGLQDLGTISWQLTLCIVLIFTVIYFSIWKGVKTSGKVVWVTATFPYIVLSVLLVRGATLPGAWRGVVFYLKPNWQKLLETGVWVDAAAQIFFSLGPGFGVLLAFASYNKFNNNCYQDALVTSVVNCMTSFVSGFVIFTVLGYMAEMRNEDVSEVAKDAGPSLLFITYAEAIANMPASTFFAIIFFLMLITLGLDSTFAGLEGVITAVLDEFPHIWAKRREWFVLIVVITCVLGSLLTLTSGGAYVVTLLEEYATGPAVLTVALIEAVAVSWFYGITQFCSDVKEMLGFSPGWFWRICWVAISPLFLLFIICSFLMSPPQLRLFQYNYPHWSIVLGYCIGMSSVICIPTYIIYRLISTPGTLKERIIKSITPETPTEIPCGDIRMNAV

| SMILES | IC50 (serotonin transporter) [nM] | Ki (dopamine D2S receptor) [nM] | Ki (5-HT1A receptor; [1]) [nM] | Ki (5-HT1A receptor) [nM] |
| --- | --- | --- | --- | --- |
| N#Cc1ccc2[nH]cc(CCCN3CCN(c4nccc(C(N)=O)n4)CC3)c2c1 [Example 30, 2-(4-(3-(5-Cyano-1H-indol-3-yl)propyl)piperazin-1-yl)pyrimidine-4-carboxamide] | 0.75 | > 1000 | 14 |  |
| Cc1cc(C)nc(N2CCN(CCCCc3c[nH]c4ccc(Cl)cc34)CC2)n1 [Example 13, 5-Chloro-3-(4-(4-(4,6-dimethylpyrimidin-2-yl)piperazin-1-yl)butyl)-1H-indole] |  |  | 1.8 |  |
| Cc1cc(C)nc(N2CCN(CCCc3c[nH]c4ccc(F)cc34)CC2)n1 [Example 19, 3-(3-(4-(4,6-Dimethylpyrimidin-2-yl)piperazin-1-yl)propyl)-5-fluoro-1H-indole] | 7.9 |  | 1.4 |  |
| CCOC(=O)c1sc(N2CCN(CCCCc3c[nH]c4ccc(F)cc34)CC2)nc1C [Example 37, Ethyl 2-(4-(4-(5-fluoro-1H-indol-3-yl)butyl)piperazin-1-yl)-4-methylthiazole-5-carboxylate] | 7 | 130 | 5.5 |  |
| Fc1ccc2[nH]cc(CCCN3CCN(c4nccc(C(F)(F)F)n4)CC3)c2c1 [Example 33, 5-Fluoro-3-(3-(4-(4-(trifluoromethyl)pyrimidin-2-yl)piperazin-1-yl)propyl)-1H-indole] | 11 |  | 1 |  |
| COc1cc(OC)nc(N2CCN(CCCc3c[nH]c4ccccc34)CC2)n1 [Example 6, 3-(3-(4-(4,6-Dimethoxypyrimidin-2-yl)piperazin-1-yl)propyl)-1H-indole] | 24 |  | 4.8 |  |
| N#Cc1ccc2[nH]cc(CCCCN3CCN(c4ncc(F)cn4)CC3)c2c1 [Example 35, 3-(4-(4-(5-Fluoropyrimidin-2-yl)piperazin-1-yl)butyl)-1H-indole-5-carbonitrile] | 4.7 |  |  |  |
| Cc1cc(C)nc(N2CCN(CCCCc3c[nH]c4ccc(C#N)cc34)CC2)n1 [Example 15, 3-(4-(4-(4,6-Dimethylpyrimidin-2-yl)piperazin-1-yl)butyl)-1H-indole-5-carbonitrile] | 6.9 |  | 2.9 |  |
| COc1cc(C)nc(N2CCN(CCCCc3c[nH]c4ccc(C#N)cc34)CC2)n1 [Example 21, 3-(4-(4-(4-Methoxy-6-methylpyrimidin-2-yl)piperazin-1-yl)butyl)-1H-indole-5-carbonitrile] | 2.6 |  | 0.65 |  |
| CCOC(=O)c1sc(N2CCN(CCCCc3c[nH]c4ccc(C#N)cc34)CC2)nc1C [Example 39, Ethyl 2-(4-(4-(5-cyano-1H-indol-3-yl)butyl)piperazin-1-yl)-4-methylthiazole-5-carboxylate] | 2.9 |  | 0.79 |  |
| N#Cc1ccnc(N2CCN(CCCc3c[nH]c4ccc(F)cc34)CC2)n1 [Example 25, 2-(4-(3-(5-Fluoro-1H-indol-3-yl)propyl)piperazin-1-yl)pyrimidine-4-carbonitrile] | 4.5 |  | 4 |  |
| Cc1nc(N2CCN(CCCCc3c[nH]c4ccc(C#N)cc34)CC2)sc1C(N)=O [Example 43, 2-(4-(4-(5-Cyano-1H-indol-3-yl)butyl)piperazin-1-yl)-4-methylthiazole-5-carboxamide] | 0.85 |  | 12 |  |
| COc1ccc2[nH]cc(CCCCN3CCN(c4nc(C)cc(C)n4)CC3)c2c1 [Example 12, 3-(4-(4-(4,6-Dimethylpyrimidin-2-yl)piperazin-1-yl)butyl)-5-methoxy-1H-indole] |  |  | 1.1 |  |
| N#Cc1ccc2[nH]cc(CCCCN3CCN(c4nccc(C#N)n4)CC3)c2c1 [Example 24, 3-(4-(4-(4-Cyanopyrimidin-2-yl)piperazin-1-yl)butyl)-1H-indole-5-carbonitrile] | 1.9 |  | 6.2 |  |
| COc1cc(OC)nc(N2CCN(CCCCc3c[nH]c4ccc(C#N)cc34)CC2)n1 [Example 5, 3-(4-(4-(4,6-Dimethoxypyrimidin-2-yl)piperazin-1-yl)butyl)-1H-indole-5-carbonitrile] | 11 |  | 2.3 |  |
| COc1cc(OC)nc(N2CCN(CCCc3c[nH]c4ccc(F)cc34)CC2)n1 [Example 9, 3-(3-(4-(4,6-Dimethoxypyrimidin-2-yl)piperazin-1-yl)propyl)-5-fluoro-1H-indole] | 4.4 |  | 3.4 |  |
| Cc1nc(N2CCN(CCCc3c[nH]c4ccc(F)cc34)CC2)sc1C#N [Example 46, 2-(4-(3-(5-Fluoro-1H-indol-3-yl)propyl)piperazin-1-yl)-4-methylthiazole-5-carbonitrile] | 18 | > 1000 | 4.2 |  |
| Fc1ccc2[nH]cc(CCCCN3CCN(c4nccc(C(F)(F)F)n4)CC3)c2c1 [Example 31, 5-Fluoro-3-(4-(4-(4-(trifluoromethyl)pyrimidin-2-yl)piperazin-1-yl)butyl)-1H-indole] | 16 |  | 2 |  |

| SMILES | IC50 (serotonin transporter) [nM] | Ki (dopamine D2S receptor) [nM] | Ki (5-HT1A receptor; [1]) [nM] | Ki (5-HT1A receptor) [nM] |
| --- | --- | --- | --- | --- |
| Cc1cc(C)nc(N2CCN(CCCCc3c[nH]c4ccccc34)CC2)n1 [Example 11, 3-(4-(4-(4,6-Dimethylpyrimidin-2-yl)piperazin-1-yl)butyl)-1H-indole] | 82 |  | 1.1 |  |
| COc1ccc2[nH]cc(CCCCN3CCN(c4nc(OC)cc(OC)n4)CC3)c2c1 [Example 2, 3-(4-(4-(4,6-Dimethoxypyrimidin-2-yl)piperazin-1-yl)butyl)-5-methoxy-1H-indole] |  |  | 1.4 |  |
| Cc1cc(C)nc(N2CCN(CCCc3c[nH]c4ccc(C#N)cc34)CC2)n1 [Example 20, 3-(3-(4-(4,6-Dimethylpyrimidin-2-yl)piperazin-1-yl)propyl)-1H-indole-5-carbonitrile] | 2 |  | 1.1 |  |
| Cc1nc(N2CCN(CCCc3c[nH]c4ccc(C#N)cc34)CC2)sc1C#N [Example 48, 2-(4-(3-(5-Cyano-1H-indol-3-yl)propyl)piperazin-1-yl)-4-methylthiazole-5-carbonitrile] | 7.7 |  | 2.6 |  |
| Cc1cc(C)nc(N2CCN(CCCCc3c[nH]c4ccc(F)cc34)CC2)n1 [Example 14, 3-(4-(4-(4,6-Dimethylpyrimidin-2-yl)piperazin-1-yl)butyl)-5-fluoro-1H-indole] | 12 |  | 1.7 |  |
| COc1cc(C)nc(N2CCN(CCCc3c[nH]c4ccc(C#N)cc34)CC2)n1 [Example 22, 3-(3-(4-(4-Methoxy-6-methylpyrimidin-2-yl)piperazin-1-yl)propyl)-1H-indole-5-carbonitrile] | 2.7 |  |  | 1.5 |
| COc1ccc2[nH]cc(CCCN3CCN(c4nc(OC)cc(OC)n4)CC3)c2c1 [Example 7, 3-(3-(4-(4,6-Dimethoxypyrimidin-2-yl)piperazin-1-yl)propyl)-5-methoxy-1H-indole] |  |  | 0.19 |  |
| N#Cc1ccc2[nH]cc(CCCN3CCN(c4ncc(F)cn4)CC3)c2c1 [Example 36, 3-(3-(4-(5-Fluoropyrimidin-2-yl)piperazin-1-yl)propyl)-1H-indole-5-carbonitrile] | 8.2 |  |  |  |
| N#Cc1ccc2[nH]cc(CCCN3CCN(c4nccc(C(F)(F)F)n4)CC3)c2c1 [Example 34, 3-(3-(4-(4-(Trifluoromethyl)pyrimidin-2-yl)piperazin-1-yl)propyl)-1H-indole-5-carbonitrile] | 5.9 |  |  | 0.2 |
| COc1cc(OC)nc(N2CCN(CCCCc3c[nH]c4ccccc34)CC2)n1 [Example 1, 3-(4-(4-(4,6-Dimethoxypyrimidin-2-yl)piperazin-1-yl)butyl)-1H-indole] |  |  | 3.3 |  |
| N#Cc1ccc2[nH]cc(CCCCN3CCN(c4nccc(C(F)(F)F)n4)CC3)c2c1 [Example 32, 3-(4-(4-(4-(Trifluoromethyl)pyrimidin-2-yl)piperazin-1-yl)butyl)-1H-indole-5-carbonitrile] | 10 |  | 0.7 |  |
| COc1cc(OC)nc(N2CCN(CCCCc3c[nH]c4ccc(Cl)cc34)CC2)n1 [Example 3, 5-Chloro-3-(4-(4-(4,6-dimethoxypyrimidin-2-yl)piperazin-1-yl)butyl)-1H-indole] |  |  | 1.1 |  |
| N#Cc1ccnc(N2CCN(CCCCc3c[nH]c4ccc(F)cc34)CC2)n1 [Example 23, 2-(4-(4-(5-Fluoro-1H-indol-3-yl)butyl)piperazin-1-yl)pyrimidine-4-carbonitrile] | 6.1 |  | 18 |  |
| COc1ccc2[nH]cc(CCCN3CCN(c4nc(C)cc(C)n4)CC3)c2c1 [Example 17, 3-(3-(4-(4,6-Dimethylpyrimidin-2-yl)piperazin-1-yl)propyl)-5-methoxy-1H-indole] |  |  | 0.29 |  |
| CC1CN(c2nccc(C(N)=O)n2)CCN1CCCc1c[nH]c2ccc(C#N)cc12 (stereo not shown) [Example 49, 2-(4-(3-(5-Cyano-1H-indol-3-yl)propyl)-3-methylpiperazin-1-yl)pyrimidine-4-carboxamide] | 0.28 |  |  |  |
| Cc1cc(C)nc(N2CCN(CCCc3c[nH]c4ccc(Cl)cc34)CC2)n1 [Example 18, 5-Chloro-3-(3-(4-(4,6-dimethylpyrimidin-2-yl)piperazin-1-yl)propyl)-1H-indole] | 31 |  | 0.71 |  |
| COc1cc(OC)nc(N2CCN(CCCc3c[nH]c4ccc(Cl)cc34)CC2)n1 [Example 8, 5-Chloro-3-(3-(4-(4,6-dimethoxypyrimidin-2-yl)piperazin-1-yl)propyl)-1H-indole] | 81 |  | 2 |  |
| CC1CN(c2nccc(C(N)=O)n2)CCN1CCCCc1c[nH]c2ccc(C#N)cc12 (stereo not shown) [Example 50, 2-(4-(4-(5-Cyano-1H-indol-3-yl)butyl)-3-methylpiperazin-1-yl)pyrimidine-4-carboxamide] | 0.36 |  |  |  |
